Data from patent US20210137858A1, “COMBINATION FORMULATION CONTAINING COLCHICINE FOR TREATMENT OR ENHANCING THE THERAPY OF LIVER DISEASE” (priority 2019, published 2021).

How the values were obtained:
Assay type in all cases: in vivo, Wistar Rat
liver fibrosis by CCl4 = test: Hydroxyproline assay, CCl4 liver fibrosis, colchicine dose (Examples 1-2); conditions: for Hydroxyproline: CCl4 0.4 g/kg rats
Experimental: (§1) Male Wistar Rat [about 150 g, 4 to 5-week old]
An administration plan of carbon tetrachloride (CCl4) and colchicine used in this experiment is as follows:
(1) Carbon tetrachloride: Intraperitoneal administration of 0.4 g/kg·bw, administered 3 times per week for 10 weeks • (2) Colchicine: Oral administration of 10, 50, 100 μg/kg·bw, once daily for 10 weeks
(§2) For this experiment, each group was classified as follows, and one group was used by 12 rats.
(3) CCl4-administered group [0.4 g/kg]
(4) CCl4+Colchicine [10 μg/kg]
(5) CCl4+Colchicine [50 μg/kg]
(6) CCl4+Colchicine [100 μg/kg]
The following items were measured to confirm the enhancement of the efficacy for treating liver fibrosis. Fibrosis index items were measured at 10 weeks.
(1) Fibrosis index item: hydroxyproline
Hydroxyproline assay was performed for each group to confirm the levels of […] accumulation in the liver.

[1] = system: fibrin accumulation in the liver (CCl4); conditions: DDB 25 mg/kg alone; CCl4 0.4 g/kg rats
Experimental: as §1
(§3) An administration plan of carbon tetrachloride (CCl4), silymarin, colchicine, and biphenyldimethyl dicarboxylate (DDB) used in this experiment is as follows:
(§4) (1) Carbon tetrachloride: Intraperitoneal administration of 0.4 g/kg·bw, administered 3 times per week for 10 weeks
(§5) (2) Silymarin: Oral administration of 10, 30, 50 mg/kg·bw, administered once a day for 10 weeks
(§6) (3) Colchicine: Oral administration of 10 μg/kg·bw, administered once a day for 10 weeks
(§7) (4) Biphenyldimethyl dicarboxylate (DDB): Oral administration of 10, 20, 25 mg/kg·bw, administered once a day for 10 weeks
(§8) (5) UDCA: Oral administration of 30 mg/kg·bw, administered once a day for 10 weeks
as §2
(§9) (4) CCl4+DDB [25 mg/kg] administered group
(§10) (5) CCl4+Colchicine [10 μg/kg]+DDB [25 mg/kg] administered group
(§11) (6) CCl4+Colchicine [10 μg/kg]+DDB [20 mg/kg] administered group
(§12) (7) CCl4+Colchicine [10 μg/kg]+DDB [10 mg/kg] administered group
(§13) (8) CCl4+Silymarin [50 mg/kg] administered group
(§14) (9) CCl4+Colchicine [10 μg/kg]+Silymarin [50 mg/kg] administered group
(§15) (10) CCl4+Colchicine [10 μg/kg]+Silymarin [30 mg/kg] administered group
(§16) (11) CCl4+Colchicine [10 μg/kg]+Silymarin [10 mg/kg] administered group
(12) CCl4+Colchicine [10 μg/kg]+UDCA [30 mg/kg] administered group […]

[2] = system: liver damage caused by CCl4; test: Blood and serum levels (albumin, ALP, ALT, AST, total protein) in CCl4-administered rats (Examples 3, 4-1 to 4-3)
Experimental: as §1, §3, §4, §5, §6, §7, §8, §2, §9, §10, §11, §12, §13, §14, §15, §16
(12) CCl4+Colchicine [10 μg/kg]+UDCA [30 mg/kg] administered group
Serum items were measured at 4 weeks and 10 weeks, and histological items were measured at 10 weeks.
(1) Serum enzyme items: Albumin, total protein concentration, ALT, AST, ALP, etc.
(§17) At this time, the dose of colchicine administered was all the same at 10 μg/kg.
as §17, §17

[3] = system: liver tissue of CCl4-administered rats; test: Liver histopathological examination (H&E staining) (Example 4-5); design: key to Fatty necrosis / Ballooning degeneration / Fatty change / Fibrosis: 0 point for no disease (NAD); 1 point for mild symptoms; 2 points for moderate symptoms; 3 points for severe symptoms; conditions: DDB [25 mg] alone, 10 weeks
Experimental: as §1, §3, §4, §2
The following items were measured to confirm the enhancement of the efficacy for the treatment of liver disease (hepatitis, liver fibrosis, etc.). Serum items were measured at 4 weeks and 10 weeks, and histological items were measured at 10 weeks.
(2) Liver tissue Histology: H&E staining
In each group, when the pathological characteristics for fatty necrosis, ballooning, fatty change, and fibrosis may be identified according to severity of disease, it was evaluated by assigning 0 point for no disease (NAD), 1 point for mild symptoms, 2 points for moderate symptoms, and 3 points for severe symptoms.

[4] = DDB 25 mg/kg alone, CCl4 rats, serum

SMILES | Hydroxyproline (liver fibrosis by CCl4; colchicine 10 μg/kg oral once daily 10 weeks) | Hydroxyproline (liver fibrosis by CCl4; colchicine 50 μg/kg oral once daily 10 weeks) | Hydroxyproline (liver fibrosis by CCl4; colchicine 100 μg/kg oral once daily 10 weeks) | fibrin (hydroxyproline assay), in words (liver fibrosis by CCl4; colchicine-administered group vs CCl4, Table 1) | Hydroxyproline [1] | ALP [2, 4] | ALT [2, 4] | AST [2, 4] | Albumin [2, 4] | Total protein [2, 4] | ALP (Alkaline phosphatase) level, in words ([2]; vs CCl4 administration, Tables 2 and 4) | Albumin level, in words ([2]; vs level reduced by CCl4, Tables 2-4) | Total protein, in words ([2]; vs value reduced by CCl4, Tables 2-4) | Ballooning degeneration [3] | Fatty change [3] | Fatty necrosis [3] | Fibrosis [3] | Total Score [3]
COc1cc2c(c(OC)c1OC)-c1ccc(OC)c(=O)cc1[C@@H](NC(C)=O)CC2 [Colchicine, colchicine] | 320.12 ± 13.32 μg/g of liver | 313.33 ± 12.50 μg/g of liver | 302.25 ± 10.25 μg/g of liver | significant reduction effect of fibrin |  |  |  |  |  |  |  |  |  |  |  |  |  | 
COC(=O)c1cc(OC)c2c(c1-c1c(C(=O)OC)cc(OC)c3c1OCO3)OCO2 [DDB, biphenyldimethyl dicarboxylate] |  |  |  |  | 317.74 ± 9.24 μg/g of liver | 1428.90 ± 681.53 U/L | 1543.09 ± 408.03 U/L | 1642.24 ± 764.93 U/L | 2.13 ± 0.09 g/dL | 5.35 ± 0.28 g/dL | the level was increased | tended to be recovered | tended to be recovered | 3 | 1 | 1 | 2 | 7
